Laboratory results taken from patent US9598463B2, “Mucin hypersecretion inhibitors and methods of use” (BIOMARCK PHARMACEUTICALS, LTD., priority 2005, dated 2017).
Marks after values point to notes of the source that are not given here. Where a SMILES comes first, the peptide text is derived from it. The star is where a group is joined. Myristoyl = CCCCCCCCCCCCCC(=O)*

Key:
[1] = Qualitative solubility of test peptides in 0.5 N saline; type: physicochemical; conditions: pH 6.5, 20° C. (table title)
Method in brief: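 Weighed peptide (1 to 5 mg) titrated with 25 μL aliquots of 0.5 N saline, pH 6.5, at 25° C until dissolution judged visually. Solubility calculated from volume needed; complete dissolution in first aliquot reported as greater than, non-dissolution as less than, the calculated value.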

HBE1 cells = assay: PMA-induced mucin hypersecretion in human bronchial epithelial cells (air/liquid interface, MUC5A ELISA); type: cell-based
Protocol: HBE1 is a papilloma virus-transformed human bronchial epithelial cell line capable of mucin secretion when cultured in air/liquid interface. HBE1 cells were cultured in the air/liquid interface as described previously (Li et al, J. Biol. Chem., volume 276, pp 40982-40990, 2001). Briefly, HBE1 cells were cultured in air/liquid interface by seeding an appropriate number of cells in 12-well Transwell clear culture inserts (Costar, Cambridge, Mass.) that were thinly coated with rat tail collagen, type I (Collaborative Biomedical, Bedford, Mass.). Cells were initially cultured submerged in medium in a humidified 95% air, 5% CO2 environment for 5-7 days until nearly confluent. At that time, the air/liquid interface was created by removing the apical medium and feeding cells basalaterally. Medium was renewed daily thereafter. Cells were cultured for an additional 14 days to allow full differentiation. The accumulated mucin at the apical surface of the cells was removed by washing with phosphate-buffered saline, pH 7.2. To collect the baseline mucin secretion, cells were incubated for 30 min with medium alone and secreted mucin in the apical medium was collected, and quantitated by ELISA. To determine the mucin hypersecretion induced by a mucin secretagogue, cells were exposed to medium containing 0.5 μM phorbol myristate acetate, (PMA) for 30 min. and mucin was collected and quantitated by ELISA. […] Six wells were used for each test peptides and for each control. Secreted mucin in the apical medium was collected and quantitated by sandwich ELISA method using alkaline phosphatase-conjugated mucin (MUC5A) specific antibody (Zymed Laboratories, San Francisco, Calif.).

[2] = tested on: methacholine-induced mucin hypersecretion; assay: Methacholine-induced mucin hypersecretion in ovalbumin-sensitized mouse model of asthma, BAL mucin ELISA (Balb/C mice); type: in vivo; conditions: for Mucin Secretion % of control: Table IV
From the text: Experiments were designed to test whether or not the MANS peptide and other test peptides related thereto inhibit hypersecretion of mucin in murine airway in vivo. The ovalbumin-sensitized mouse model of allergic inflammation and asthma used in these studies was as described by Singer et al. (2004), supra. As a negative control, a control peptide containing an N-terminal myristoyl group and the same amino acids as MANS peptide but arranged in random order (i.e., the random N-terminal sequence, RNS, myristoyl-peptide 232) was tested alongside the proposed active peptides. BP2 mice, aged 6-8 wks, were immunized subcutaneously twice at weekly intervals with 1 μg of ovalbumin. After 14 days of sensitization, the animals were exposed to aerosolized ovalbumin, which causes a pronounced goblet cell hyperplasia after 72 hours. At the 72 hr time point, the secretagogue, methacholine ([…]) was delivered using a Buxco system nebulizer providing a fine aerosol for 90 seconds. Fifteen min prior to the secretagogue challenge, 50 μL of the test peptide, at 3 different concentrations (10 μM, 100 μM, or 140 μM), was administered by intratracheal route. The RNS peptide was tested at the highest dose level only (50 μL of 140 μM solution). […] Each experiment was carried out in 6 mice per point, and each set of experiments was repeated 3 times. To test strain-to-strain variations, the above experiment was repeated in Balb/C mice under similar protocol. Both stimulated and unstimulated mucin secretion, in mice treated with […] sodium acetate (data not shown), were identical to saline control. Following the methacholine challenge, the animals were sacrificed and bronchoalveolar lavage (BAL) performed on 6 animals per group for analysis of secreted mucin.
Mice were sacrificed by cervical dislocation, followed by rapid exposure of the trachea and insertion of a cannula through a small incision. Bronchoalveolar lavage (BAL) fluid was collected with 0.5 ml followed by 3×1 ml PBS containing PMSF (5 mM), EDTA (5 mM), and DTT (5 mM). BAL fluid was separated into cell-free and cell fractions via brief centrifugation prior to any analyses being performed. The cell-free supernatants were analyzed for the presence of mucin via an ELISA method using anti-mucin antibodies shown to react with mouse mucin. Specifically, a mouse anti-MUC5AC antibody that recognizes the carbohydrate portion of secreted mucin was used in these assays. Data generated from each BAL sample were normalized to total protein as determined by Bradford assay. Mucin content was expressed as the value obtained with the anti-mucin antibody minus that obtained with the non-immune control antibody. All ELISA data were statistically examined using a one-way ANOVA.

[3] = Stability of test peptides in human plasma (LC/MS/MS, first order half-life); type: in vitro ADME
Protocol: (§1) Various test peptides in human plasma, human BALF, and CF patient mucus were analyzed to determine the susceptability of the test peptide to proteolysis in the biological fluids. […] The samples were analyzed either on the same day as received or stored at −20° C. and analyzed within the following two days.
Fresh human blood samples were collected in citrate buffered vacuutrainers (in absence of EDTA or heparin). Red blood cells (RBC) were removed by centrifugation of the blood at 4000×g for 10 min at 4° C. Plasma aliquots (0.9 mL) were then spiked with 0.1 mL of 0.5 mg/mL solution of the test peptide in 75 mM sodium acetate buffer at pH 7.0 and incubated in a water bath maintained at 37° C. Duplicate aliquots of 10 μL, were withdrawn at 5, 15, 30, 60, and 180 minutes intervals and immediately “quenched” with 990 μL of a solution consisting of 50% acetonitrile+50% water containing 0.2% formic acid. The samples were then subjected to liquid chromatography-mass spectrometry (LCMS) analysis.
(§2) All samples were analyzed using LC/MS/MS (MDS/SCIEX, API 4000 Model). Chromatography was performed using a Phenomenex Luna C18 column, while mass spectrometry was performed using positive ion electrospray ionization.
Calibration standards were analyzed by LCMS at concentrations of 0.100 μg/mL, 1.00 μg/mL, 10.0 μg/mL, and 100 μg/mL for each peptide, with the exception of the calibration standards for peptides myr-PEPTIDE 106, PEPTIDE 106, PEPTIDE 106-NH2, PEPTIDE 106, and cyclic peptide, cyc-PEPTIDE 106, in human mucus, which were analyzed at concentrations of 0.100 μg/mL, 1.00 μg/mL, 10.0 μg/mL, and 75 μg/mL. Standards were prepared in 1% human BALF, plasma, or mucus in 50/50 water/acetonitrile mixture containing 0.2% formic acid. The instrument response values for each set of standards were fit using a 1/(concentration)^2 linear least-squares line. Sample concentrations were calculated using the slope and intercept of this line. Concentrations outside of the calibration range were determined by extrapolating the calibration curve. […]
For the analysis of peptide concentration in plasma, duplicate calibration standards were analyzed at a concentration of 25 μg/mL and 50 μg/mL for each peptide. The instrument response values for each set of standards were fit through an intercept of 0 using an unweighted, linear least-squares line. Sample concentrations were calculated using the slope and intercept of this line. Concentrations outside of the calibration range were determined by extrapolating the calibration curve.
(§3) Watson fits the log transformed data with a least-squares line to determine parameters such as Cmax (maximum concentration), intercept, rate constant, slope, and T1/2 (half-life). The resulting kinetic parameters were based on the linear fit, not the actual concentration values.
(§4) Time-zero calibration standards in solution were not included as part of the kinetic profiles.

[4] = Stability of test peptides in human BALF (LC/MS/MS, first order half-life); type: in vitro ADME
Protocol: as §1
Samples of BALF collected from COPD patients were obtained and frozen. The BALF samples were thawed, mixed together and centrifuged at 10,000×g for 10 min at 4-8° C. The supernatant (0.9 mL) was spiked with 0.1 mL of 0.5 mg/mL solution of the peptide in 75 mM sodium acetate buffer at pH 7.0 and processed and analyzed as described above.
as §2
(§5) Calibration standards were analyzed by LCMS at concentrations of 0.100 μg/mL, 1.00 μg/mL, 10.0 μg/mL, and 100 μg/mL for each peptide, with the exception of the calibration standards for peptides myr-PEPTIDE 106, PEPTIDE 106, PEPTIDE 106-NH2, PEPTIDE 106, and cyclic peptide, cyc-PEPTIDE 106, in human mucus, which were analyzed at concentrations of 0.100 μg/mL, 1.00 μg/mL, 10.0 μg/mL, and 75 μg/mL. Standards were prepared in 1% human BALF, plasma, or mucus in 50/50 water/acetonitrile mixture containing 0.2% formic acid. The instrument response values for each set of standards were fit using a 1/(concentration)^2 linear least-squares line. Sample concentrations were calculated using the slope and intercept of this line. Concentrations outside of the calibration range were determined by extrapolating the calibration curve.
Duplicate calibration standards were analyzed at a concentration of 50 μg/mL for each peptide. The instrument response values for each set of standards were fit through an intercept of 0 using an unweighted, linear least-squares line. Sample concentrations were calculated using the slope and intercept of this line.
For the analysis of peptide concentration in BALF samples, one 50 μg/mL calibration standard prepared in a mixture of BALF, water, acetonitrile, and formic acid was analyzed with each sample set.
as §3, §4

[5] = Stability of test peptides in human CF mucus (LC/MS/MS, first order half-life); type: in vitro ADME; conditions: cerebrospinal or other body fluid
Protocol: as §1
The frozen mucus (sputum) from a CF patient was thawed and mixed with 2 volumes of 75 mM sodium acetate buffer, pH 7 with the help of a glass tissue grinder, centrifuged at 10,000×g for 10 min at 4-8° C. The pellet was re-suspended in 1 volume of the acetate buffer and centrifuged. The two supernatants were combined and used as follows. The supernatant (450 μL) was spiked with 50 μL, of 0.5 mg/mL solution of the peptide in 75 mM sodium acetate buffer at pH 7.0 and processed and analyzed as described above.
as §2, §5, §3, §4

Structure (SMILES): CC(=O)N[C@@H](C)C(=O)N[C@@H](CCCCN)C(=O)NCC(=O)N[C@@H](CCC(=O)O)C(=O)O [Ac-peptide 219] (Ac-AKGE-OH)
- solubility [1]: > 200 mg/mL
- Mucin secretion level below the unstimulated medium control (HBE1 cells; 25 μM peptide, then 0.5 μM PMA): 20%
- Block of PMA-induced increase in mucin secretion (HBE1 cells; pretreatment with 25 μM peptide, then 0.5 μM PMA): 100%

Structure (SMILES): CC(=O)N[C@@H](C)C(=O)N[C@@H](C)C(=O)NCC(=O)N[C@@H](CCC(=O)O)C(=O)O [Ac-peptide 251] (Ac-AAGE-OH)
- solubility [1]: > 200 mg/mL
- Inhibitory effect on PMA-induced increase in mucin secretion (HBE1 cells; peptide concentration not given, 0.5 μM PMA): 6%

Structure (SMILES): CCCCCCCCCCCCCC(=O)O[C@@H]1[C@@H](C)[C@@]2(O)[C@@H](C=C(CO)C[C@]3(O)C(=O)C(C)=C[C@@H]23)[C@@H]2C(C)(C)[C@]12OC(C)=O [PMA, phorbol myristate acetate, reference compound]
- Increase in mucin secretion (HBE1 cells; 0.5 μM PMA, 30 min): 20%

Structure (SMILES): CCCCCCCCCCCCCC(=O)NCC(=O)N[C@@H](C)C(=O)N[C@@H](CCC(N)=O)C(=O)N[C@@H](Cc1ccccc1)C(=O)N[C@@H](CO)C(=O)N[C@@H](CCCCN)C(=O)N[C@H](C(=O)N[C@@H](C)C(=O)N[C@@H](C)C(=O)N[C@@H](CCCCN)C(=O)O)[C@@H](C)O [myr-peptide 106] (Myristoyl-GAQFSKTAAK-OH)
- Mucin Secretion % control ([2]; Table II, peptides at 100 μM, 50 μL intratracheal 15 min before methacholine): 33.6 % control
- Mucin Secretion % of control ([2]; peptide 10 μM): 74*+ % of control
- Mucin Secretion % of control ([2]; peptide 100 μM): 24** % of control
- solubility [1]: > 10 mg/mL
- half-life ([3]; Plasma t1/2 (1st exp.)): 73.8 min
- half-life ([3]; Plasma t1/2 (2nd exp.)): 54 min
- half-life [4]: 61.8 min
- half-life ([5]; pH 7, Mucus t1/2 (1st exp.)): 572 min
- half-life ([5]; pH 7, Mucus t1/2 (2nd exp.)): 180 min
